The subject of assay [1] is normotensive dogs. In words: In vivo intraocular pressure (IOP) test in normotensive dogs. How it is done: Title compounds H145 and H146 from above are tested in vivo to test its ability to reduce intraocular pressure. Compound H145 is tested in normotensive dogs.
The test system of assay [2] is laser-induced hypertensive monkeys. In words: In vivo intraocular pressure (IOP) test in laser-induced hypertensive monkeys.
Assay [3] deals with lashes and adjacent hairs. In words: Observation of lashes and adjacent hairs in glaucoma patients treated with bimatoprost in one eye. The class given is in vivo. From the text: In the course of treating patients having glaucoma, treatment may only be appropriate in one eye. […] The lash appearance on the lids of the treated eyes would have appeared quite attractive if it represented a bilateral phenomenon. As a result of its asymmetric nature, the long lashes on one side could be construed as disturbing from a cosmetic standpoint. A systemic examination was preformed as a result of the asymmetric phenomenon. It soon became apparent that this altered appearance was not an isolated finding. […] Definite differences could be identified to varying degrees in the lashes and adjacent hairs of all patients who were taking the drug on a unilateral basis for longer than 6 months.
The changes in the lashes were apparent on gross inspection in several patients once attention was focused on the issue. In those with light colored hair and lashes, the differences were only seen easily with the aid of the high magnification and lighting capabilities of the slit lamp biomicroscope. In the course of glaucoma follow-up examination, attention is generally immediately focused on the eye itself. As a result of the high power magnification needed only one eye is seen at a time and the eye is seen at a high enough power that the lashes are not in focus. […]

`O=C(OCCN1CCOCC1)c1ccc(CCC[C@@H]2[C@@H](CSc3cc(Cl)cc(Cl)c3)[C@H](O)C[C@H]2Cl)s1` [Compound H146]: the “intraocular pressure (IOP) versus baseline” value in assay [1] is recorded as “decreases from baseline”. Further, the IOP versus baseline result in assay [2] is listed as “decreases from baseline”.
For the molecule `O=C(OCCO)c1ccc(CCC[C@@H]2[C@@H](CSc3cc(Cl)cc(Cl)c3)[C@H](O)C[C@H]2Cl)s1` [Compound H145], in assay [1], the “intraocular pressure (IOP) versus baseline” value is “decreases from baseline”. Also, the IOP versus baseline entry in assay [2] is “decreases from baseline”.
Turning to `CCNC(=O)CCC/C=C\C[C@@H]1[C@@H](/C=C/[C@@H](O)CCc2ccccc2)[C@H](O)C[C@@H]1O` [bimatoprost], in assay [3] (glaucoma patient treated in one eye), the “lash appearance in treated eye versus non-treated eye” value is “longer, thicker, and fuller”. Further, the “hair growth in treated versus control areas” value in assay [3] (multiple parameters of hair appearance, many subjects) is given as “stimulated”.
Consider `O=C(OCCO)c1ccc(CCC[C@@H]2[C@@H](CNc3cc(Cl)cc(Cl)c3)[C@H](O)C[C@H]2Cl)s1` [Compound H147], for which the “intraocular pressure (IOP) versus baseline” value in assay [1] was “decreases from baseline”. Further, in assay [2], the IOP versus baseline result was “decreases from baseline”.
With `O=C(OCCN1CCOCC1)c1ccc(CCC[C@@H]2[C@@H](CNc3cc(Cl)cc(Cl)c3)[C@H](O)C[C@H]2Cl)s1` [Compound H148], the “intraocular pressure (IOP) versus baseline” value in assay [1] is listed as “decreases from baseline”. Besides, the IOP versus baseline entry in assay [2] is given as “decreases from baseline”.

(Values after patent US8252788B2, “Therapeutic compounds” (Allergan, Inc., priority 2008, dated 2012).)
